In paper PMC2834666, “An enhancer peptide for membrane-disrupting antimicrobial peptides” (BMC Microbiology, 2010):
Values after ≈ are worked out from the molar mass of the structure shown. Bridge positions count the residues as written; N and C are the ends. Square brackets hold non-standard residues; d marks the D form. Peptide text beside a SMILES is read from it. * marks the point of attachment. X1 = CC[C@H](C)CCCCC(=O)*; Dab = NCC[C@H](N)C(=O)O

Experiments:
Assay type in all cases: cell-based
[1] = test system: Staphylococcus aureus IFO12732; assay: microbe, parasite or virus in culture; settings: 10 mM Tris/HCl pH 7.5, 2 h incubation, colony count; for MBC: Staphylococcus aureus, IFO12732
Procedure: (§1) Microbicidal assay was performed as previously described. Briefly, each microbial strain in the mid-exponential phase was suspended in 10 mM Tris/HCl, pH 7.5. The microbial suspension was mixed with antimicrobials in the presence or absense of NP4P. After 2 h incubation, the suspension was diluted 1,000 times and inoculated on to plates of IFO702 medium. The number of colonies were counted, and a plot of peptide concentration vs colony number was created.

Escherichia coli JM109 = settings: for MBC, NP4P-: absence of NP4P, 10 mM Tris/HCl pH 7.5, 2 h incubation, colony count
Procedure: as §1, with “Briefly, each microbial strain in the mid-exponential phase was suspended in 10 mM Tris/HCl, pH 7.5.” left out

[2] = test system: Serratia marcescens IFO3736; settings: absence of NP4P; 10 mM Tris/HCl pH 7.5, 2 h incubation, colony count
Procedure: as §1

[3] = test system: Pseudomonas aeruginosa IFO3899; settings: absence of NP4P; 10 mM Tris/HCl pH 7.5, 2 h incubation, colony count
Procedure: as §1

[4] = test system: Salmonella typhimurium IFO13245; settings: absence of NP4P; 10 mM Tris/HCl pH 7.5, 2 h incubation, colony count
Procedure: as §1

Row | SMILES | MBC ([1]; absence of NP4P) | MBC ([1]; presence of 20 μg/mL NP4P) | MBC, NP4P- ([1]; absence of NP4P) | MBC, NP4P- (Escherichia coli JM109) | other results
1 | CC1(C)S[C@@H]2[C@H](NC(=O)[C@H](N)c3ccccc3)C(=O)N2[C@H]1C(=O)O [Ampicillin] | 250 µg/mL (≈ 715 µM) | 250 µg/mL |  |  | 
2 | CCN1CCN(c2cc3c(cc2F)c(=O)c(C(=O)O)cn3C2CC2)CC1 [Enrofloxacin] | 0.25 µg/mL (≈ 0.696 µM) | 0.25 µg/mL |  |  | 
3 | CC[C@H](C)[C@H](N)C(=O)N[C@@H](CC(C)C)C(=O)N1CCC[C@H]1C(=O)N[C@@H](Cc1c[nH]c2ccccc12)C(=O)N[C@@H](CCCCN)C(=O)N[C@@H](Cc1c[nH]c2ccccc12)C(=O)N1CCC[C@H]1C(=O)N[C@@H](Cc1c[nH]c2ccccc12)C(=O)N[C@@H](Cc1c[nH]c2ccccc12)C(=O)N1CCC[C@H]1C(=O)N[C@@H](Cc1c[nH]c2ccccc12)C(=O)N[C@@H](CCCNC(=N)N)C(=O)N[C@@H](CCCNC(=N)N)C(N)=O [Indolicidin] |  |  | 10 µg/mL (≈ 5.25 µM) | 10 µg/mL (≈ 5.25 µM) | 
4 | NC[C@H]1O[C@H](O[C@H]2[C@H](O)[C@@H](O[C@H]3O[C@H](CO)[C@@H](O)[C@H](N)[C@H]3O)[C@H](N)C[C@@H]2N)[C@H](O)[C@@H](O)[C@@H]1O [Kanamycin] |  |  | 3 µg/mL (≈ 6.19 µM) |  | MBC, NP4P+ ([1]; presence of 20 μg/mL NP4P): 3 µg/mL
5 | CC[C@H](C)CCCCC(=O)N[C@@H](CCN)C(=O)N[C@H](C(=O)N[C@@H](CCN)C(=O)N[C@H]1CCNC(=O)[C@H]([C@@H](C)O)NC(=O)[C@H](CCN)NC(=O)[C@H](CCN)NC(=O)[C@H](CC(C)C)NC(=O)[C@@H](Cc2ccccc2)NC(=O)[C@H](CCN)NC1=O)[C@@H](C)O [Polymyxin B] (X1-[Dab]T[Dab][Dab][Dab][dF]L[Dab][Dab]T; lactam 4-C (inferred); N-terminus assumed) |  |  |  | 3 µg/mL (≈ 2.49 µM) | shift of bactericidal dose-effect curve to lower concentration (Escherichia coli JM109; in the presence of 100 μg/mL NP4P, 10 mM Tris-HCl, pH 7.4): ~10 times lower concentration; MBC, NP4P- [2]: 5 µg/mL (≈ 4.15 µM); MBC, NP4P- [3]: 5 µg/mL (≈ 4.15 µM); MBC, NP4P- [4]: 5 µg/mL (≈ 4.15 µM)
